# Test results reported in paper PMC9652372, “Glycolytic flux control by drugging phosphoglycolate phosphatase” (Nature Communications, 2022).
# Target: T1, murine PGP-WT / PGP-C297S (Mus musculus, UniProt Q8CHP8, C297S)
# T1 construct: His6 (N, cleaved yes); made in house; host or cells: Escherichia coli BL21 (DE3)
# T1 sequence (Q8CHP8 1-321 C297S): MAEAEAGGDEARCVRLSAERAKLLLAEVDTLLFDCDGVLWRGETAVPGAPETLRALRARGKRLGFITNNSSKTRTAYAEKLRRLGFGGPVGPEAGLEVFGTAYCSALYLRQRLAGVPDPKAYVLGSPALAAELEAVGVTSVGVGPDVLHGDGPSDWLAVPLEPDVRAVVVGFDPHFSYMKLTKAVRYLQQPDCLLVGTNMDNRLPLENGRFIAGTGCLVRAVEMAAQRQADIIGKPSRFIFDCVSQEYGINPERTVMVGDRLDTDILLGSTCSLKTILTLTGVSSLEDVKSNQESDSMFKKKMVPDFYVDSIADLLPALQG
# Test: Size-exclusion chromatography, PGP self-association
# Settings: SEC; 100 µM CP1
# Method: A volume of 900 µL was loaded onto a Superdex 200 10/300GL (Cytiva) size exclusion chromatography column operated on an ÄKTA liquid chromatography system.
# Error bars not shown are hidden by the symbols. (c) PGP self-association in the absence or presence of CP1. Size- exclusion chromatography (SEC) of purified, recombinant murine PGP-WT in comparison to PGP-C297 […]
# (1 picture or pasted object on this page, not shown here)
# (100 µM). SEC profiles of PGP -WT are the mean of n=3 independent experiments; PGP -C297S […]
# independent experiments. Statistical testing was done using a two-sided t-test, and the p- value
compound,measurement,value
O=C(Nc1ccccc1C(=O)O)c1ccc(Oc2ccc(C(=O)Nc3ccccc3C(=O)O)cc2)cc1 [CP1],effect on PGP^C297S self-association,did not affect
